This passage reports mortality results from paper PMC9574050, “Design, synthesis, and insecticidal activity of a novel series of flupyrimin analogs bearing 1-aryl-1H-pyrazol-4-yl subunits” (Frontiers in Chemistry, 2022).

Read-outs that look alike come from different tables or passages of the source.

Format in all cases: in vivo
In one experiment the test system is Aphis craccivora. Nature of the experiment: Insecticidal activity against Aphis craccivora (Potter spray tower). Conditions: read-out: Mortality rate (%) A. craccivora. The protocol: (§1) Preparation of test agent. Dissolve accurately weighed tested compound in DMF to prepare 1% mother liquor, and then dilute it with distilled water containing 0.1% Tween-80 to corresponding concentrations for later use.
Insecticidal activity against Aphis craccivora ([Liu et al., 2022]). About 30 nymphs of alfalfa aphid were placed on a horsebean leaf dish, and then 2.5 ml of the tested agent was sprayed with Potter spray tower. After treatment, they were cultured in an observation room at 20–22°C. The result was counted 24 h later, and the no-response insect body when it was lightly touched with tweezers was regarded as dead. Each treatment was repeated three times, and DMF without the tested compound was used as a blank control.
(§2) The insecticidal activities of the test compounds against the abovementioned five insects were calculated by the following formula: P1=(K/N)×100, (1) P2=(Pt−P0)/(1−P0)×100, (2) where P1 is the mortality rate; K is the dead insect number; N is the total number of experimental insects; P2 is the corrected mortality rate; Pt is the mortality rate of treatment; P0 is the mortality rate of CK. If the mortality rate of CK is less than 5%, without the required correction, and if the mortality rate of CK is between 5 and 20%, P2 should be calculated according to formula II.

The subject of a further experiment is Helicoverpa armigera. The experiment in a line: Insecticidal activity against Helicoverpa armigera (soaking method). The note with it: Helicoverpa armigera, 48 h, read-out: Mortality rate (%) H. armigera.
Text: as §1
Insecticidal activity against Helicoverpa armigera. The soaking method was adopted ([Yang et al., 2022]). After soaking a proper amount of corn leaves for 10 s, they were placed in a plastic Petri dish with filter paper and dried naturally in the shade. Ten larvae of the 2nd instar H. armigera were attached to each dish and placed in an observation room at 26°C with light (16/8 h). The result was counted 2 days later, and the no-response insect body when it was lightly touched with a brush was regarded as dead. Each treatment was repeated 3 times, and DMF without the tested compound was used as a blank control.
as §2

In a further experiment the test system is Chilo suppressalis. The experiment in a line: Insecticidal activity against Chilo suppressalis (soaking method). Conditions: 96 h, read-out: Mortality rate (%) C. suppressalis.
Text: as §1
Insecticidal activity against Chilo suppressalis ([Huang et al., 2022]). The soaking method was adopted. The Zizania latifolia slices were soaked in a tested solution for 10 s, then taken out, and placed in a plastic Petri dish with filter paper to naturally dry in the shade. […] The result was counted 4 days later, and the no-response insect body when it was lightly touched with a brush was regarded as dead. Each treatment was repeated three times, and DMF without the tested compound was used as a blank control.
as §2

Another experiment relates to Plutella xylostella. Nature of the experiment: Insecticidal activity against Plutella xylostella (soaking method). The note with it: Plutella xylostella, 48 h, read-out: Mortality rate (%) P. xylostella.
Text: as §1
Insecticidal activity against Plutella xylostella ([Yang et al., 2021]). The soaking method was adopted. After soaking a proper amount of radish leaves for 10 s, it was placed in a plastic Petri dish with filter paper and dried naturally in the shade. Each dish was inoculated with 10 2nd instar P. xylostella larvae and placed in an observation room at 22°C with light (16/8 h). The result was counted 2 days later, and the no-response insect body when it was lightly touched with a brush was regarded as dead. Each treatment was repeated three times, and DMF without the tested compound was used as a blank control.
as §2

The test system of another experiment is Nilaparvata lugens. Nature of the experiment: Insecticidal activity against Nilaparvata lugens (Potter spray tower). The note with it: 24 h, read-out: Mortality rate (%) N. lugens.
Text: as §1
Insecticidal activity against Nilaparvata lugens ([Ghareeb et al., 2021]). The seedlings with two leaves and one heart were placed in a Petri dish with a bottom diameter of 3 cm and covered with white sand. After the 3rd instar nymphae of N. lugens were stunned by CO2, about 15 nymphae were received in each dish, and then 2.5 ml of the tested agent was sprayed with Potter spray tower. The mortality of N. lugens was investigated 1 day after the treatment. Each treatment was repeated three times, and DMF without the tested compound was used as a blank control.
as §2

Where [1] appears, read: 400 μg/mL, 2nd instar larvae, counted 2 days later.
Where [2] appears, read: 400 μg/mL, 3rd instar larvae, counted 4 days later.
The mark [3] stands for this setting: 25 μg/mL, 2nd instar larvae, counted 2 days later.
Setting [4] is: 100 μg/mL, 2nd instar larvae, counted 2 days later.
Where [5] appears, read: 400 μg/mL, 3rd instar nymphae, 1 day after treatment.

With `COCC(=O)/N=c1\ccccn1Cc1cnn(-c2ccccc2)c1C(F)(F)F` [Compound B1, (E)-2-methoxy-N-(1-((1-phenyl-5-(trifluoromethyl)-1H-pyrazol-4-yl)methyl)pyridin-2(1H)-ylidene)acetamide], the mortality at 400 µg/mL with Aphis craccivora (400 μg/mL, counted 24 h later) was 0%; with Helicoverpa armigera (setting [1]), 0%; with Chilo suppressalis (setting [2]) it was 0%; in the experiment with Plutella xylostella (setting [1]), 100%; in the experiment on Nilaparvata lugens (setting [5]), 48.9%. Further, the mortality at 25 µg/mL with Plutella xylostella (setting [3]) came to 16.7%. For the same compound, the mortality at 100 µg/mL in the experiment with Plutella xylostella (setting [4]) is 100%.
In the case of `COCC(=O)/N=c1\ccccn1Cc1cnn(-c2ccc(F)cc2)c1C(F)F` [Compound B8, (E)-N-(1-((5-(difluoromethyl)-1-(4-fluorophenyl)-1H-pyrazol-4-yl)methyl)pyridin-2(1H)-ylidene)-2-methoxyacetamide], the mortality at 400 µg/mL with Aphis craccivora (400 μg/mL, counted 24 h later) came out at 0%; in the experiment with Helicoverpa armigera (setting [1]), 0%; in the experiment on Chilo suppressalis (setting [2]), 0%; in the experiment with Plutella xylostella (setting [1]) it was 56.7%; in the experiment on Nilaparvata lugens (setting [5]), 0%.
Take `COCC(=O)/N=c1\ccccn1Cc1cnn(-c2cccc(F)c2)c1C(F)(F)F` [Compound B3, (E)-N-(1-((1-(3-fluorophenyl)-5-(trifluoromethyl)-1H-pyrazol-4-yl)methyl)pyridin-2(1H)-ylidene)-2-methoxyacetamide]: the mortality at 400 µg/mL in the experiment on Aphis craccivora (400 μg/mL, counted 24 h later) was determined as 0%; in the experiment with Helicoverpa armigera (setting [1]) it was 0%; in the experiment on Chilo suppressalis (setting [2]), 0%; in the experiment on Plutella xylostella (setting [1]), 100%; in the experiment on Nilaparvata lugens (setting [5]) it was 0%. The mortality at 25 µg/mL with Plutella xylostella (setting [3]) is over 70%. In the experiment with Plutella xylostella (setting [4]), the mortality at 100 µg/mL amounted to 100%.
For the compound `COCC(=O)/N=c1\ccccn1Cc1cnn(-c2cccc(Cl)c2)c1C(F)F` [Compound B6, (E)-N-(1-((1-(3-chlorophenyl)-5-(difluoromethyl)-1H-pyrazol-4-yl)methyl)pyridin-2(1H)-ylidene)-2-methoxyacetamide], the mortality at 400 µg/mL was 0% in the experiment with Aphis craccivora (400 μg/mL, counted 24 h later); 0% with Helicoverpa armigera (setting [1]); 0% in the experiment with Chilo suppressalis (setting [2]); 100% in the experiment on Plutella xylostella (setting [1]); 0% in the experiment on Nilaparvata lugens (setting [5]). For the same compound, in the experiment on Plutella xylostella (setting [3]), the mortality at 25 µg/mL came to 0%. The mortality at 100 µg/mL in the experiment with Plutella xylostella (setting [4]) turned out to be 83.3%.
For `O=C(/N=c1\ccccn1Cc1cnn(-c2cccc(Cl)c2)c1C(F)F)C(F)(F)C(F)(F)F` [Compound C6, (E)-N-(1-((1-(3-chlorophenyl)-5-(difluoromethyl)-1H-pyrazol-4-yl)methyl)pyridin-2(1H)-ylidene)-2,2,3,3,3-pentafluoropropanamide], the mortality at 400 µg/mL in the experiment with Aphis craccivora (400 μg/mL, counted 24 h later) is 0%; with Helicoverpa armigera (setting [1]) it was 0%; with Chilo suppressalis (setting [2]) it was 0%; in the experiment on Plutella xylostella (setting [1]), 60%; with Nilaparvata lugens (setting [5]), 0%.
In the case of `Cn1cc(C(=O)/N=c2\ccccn2Cc2cnn(-c3ccc(C(F)(F)F)cc3)c2C(F)(F)F)c(C(F)F)n1` [Compound D5, (E)-3-(difluoromethyl)-1-methyl-N-(1-((5-(trifluoromethyl)-1-(4-(trifluoromethyl)phenyl)-1H-pyrazol-4-yl)methyl)pyridin-2(1H)-ylidene)-1H-pyrazole-4-carboxamide], the mortality at 400 µg/mL came out at 0% in the experiment on Aphis craccivora (400 μg/mL, counted 24 h later); 0% in the experiment with Helicoverpa armigera (setting [1]); 0% with Chilo suppressalis (setting [2]); 63.3% in the experiment on Plutella xylostella (setting [1]); 0% in the experiment on Nilaparvata lugens (setting [5]).
Turning to `Cn1cc(C(=O)/N=c2\ccccn2Cc2cnn(-c3ccccc3)c2C(F)(F)F)c(C(F)F)n1` [Compound D1, (E)-3-(difluoromethyl)-1-methyl-N-(1-((1-phenyl-5-(trifluoromethyl)-1H-pyrazol-4-yl)methyl)pyridin-2(1H)-ylidene)-1H-pyrazole-4-carboxamide], the mortality at 400 µg/mL in the experiment with Aphis craccivora (400 μg/mL, counted 24 h later) amounted to 0%; in the experiment with Helicoverpa armigera (setting [1]) it was 0%; in the experiment with Chilo suppressalis (setting [2]), 0%; in the experiment on Plutella xylostella (setting [1]) it was 46.7%; in the experiment on Nilaparvata lugens (setting [5]), 0%.
In the case of `O=C(/N=c1\ccccn1Cc1cnn(-c2ccc(C(F)(F)F)cc2)c1C(F)(F)F)C(F)(F)F` [Compound A5, (E)-2,2,2-trifluoro-N-(1-((5-(trifluoromethyl)-1-(4-(trifluoromethyl)phenyl)-1H-pyrazol-4-yl)methyl)pyridin-2(1H)-ylidene)acetamide], the mortality at 400 µg/mL was found to be 0% in the experiment on Aphis craccivora (400 μg/mL, counted 24 h later); 0% in the experiment with Helicoverpa armigera (setting [1]); 0% in the experiment with Chilo suppressalis (setting [2]); 73.3% in the experiment on Plutella xylostella (setting [1]); 0% in the experiment on Nilaparvata lugens (setting [5]).
With `O=C(/N=c1\ccccn1Cc1cnn(-c2ccc(Cl)cc2)c1C(F)(F)F)C(F)(F)C(F)(F)F` [Compound C4, (E)-N-(1-((1-(4-chlorophenyl)-5-(trifluoromethyl)-1H-pyrazol-4-yl)methyl)pyridin-2(1H)-ylidene)-2,2,3,3,3-pentafluoropropanamide], the mortality at 400 µg/mL came out at 0% with Aphis craccivora (400 μg/mL, counted 24 h later); 0% with Helicoverpa armigera (setting [1]); 0% in the experiment with Chilo suppressalis (setting [2]); 73.3% with Plutella xylostella (setting [1]); 0% with Nilaparvata lugens (setting [5]).
`O=C(/N=c1\ccccn1Cc1cnn(-c2ccccc2)c1C(F)(F)F)C(F)(F)F` [Compound A1, (E)-2,2,2-trifluoro-N-(1-((1-phenyl-5-(trifluoromethyl)-1H-pyrazol-4-yl)methyl)pyridin-2(1H)-ylidene)acetamide]: the mortality at 400 µg/mL in the experiment on Aphis craccivora (400 μg/mL, counted 24 h later) amounted to 0%; in the experiment on Helicoverpa armigera (setting [1]), 0%; in the experiment on Chilo suppressalis (setting [2]), 0%; in the experiment with Plutella xylostella (setting [1]), 76.7%; with Nilaparvata lugens (setting [5]) it was 0%.
In the case of `O=C(/N=c1\ccccn1Cc1cnn(-c2cccc(F)c2)c1C(F)F)C(F)(F)F` [Compound A7, (E)-N-(1-((5-(difluoromethyl)-1-(3-fluorophenyl)-1H-pyrazol-4-yl)methyl)pyridin-2(1H)-ylidene)-2,2,2-trifluoroacetamide], the mortality at 400 µg/mL with Aphis craccivora (400 μg/mL, counted 24 h later) stood at 0%; with Helicoverpa armigera (setting [1]), 0%; in the experiment on Chilo suppressalis (setting [2]), 0%; in the experiment with Plutella xylostella (setting [1]) it was 63.3%; in the experiment on Nilaparvata lugens (setting [5]), 0%.
On to `O=C(/N=c1\ccccn1Cc1cnn(-c2cccc(F)c2)c1C(F)(F)F)C(F)(F)F` [Compound A3, (E)-2,2,2-trifluoro-N-(1-((1-(3-fluorophenyl)-5-(trifluoromethyl)-1H-pyrazol-4-yl)methyl)pyridin-2(1H)-ylidene)acetamide], for which the mortality at 400 µg/mL in the experiment on Aphis craccivora (400 μg/mL, counted 24 h later) is 0%; in the experiment on Helicoverpa armigera (setting [1]), 0%; in the experiment on Chilo suppressalis (setting [2]), 0%; in the experiment with Plutella xylostella (setting [1]), 100%; in the experiment on Nilaparvata lugens (setting [5]), 0%. For the same compound, the mortality at 25 µg/mL in the experiment on Plutella xylostella (setting [3]) worked out at 0%. Besides, in the experiment on Plutella xylostella (setting [4]), the mortality at 100 µg/mL was determined as 86.7%.
Consider `CNC(=O)c1cc(Cl)cc(C)c1NC(=O)c1cc(Br)nn1-c1ncccc1Cl` [CAT, chlorantraniliprole, reference compound], for which the mortality at 400 µg/mL in the experiment on Aphis craccivora (24 h) was 0%; in the experiment with Helicoverpa armigera, 100%; in the experiment on Chilo suppressalis, 100%; with Plutella xylostella, 100%; in the experiment on Nilaparvata lugens, 0%. In addition, the mortality at 100 µg/mL with Chilo suppressalis and in the experiment with Plutella xylostella was 100% throughout. The mortality at 25 µg/mL in the experiment with Plutella xylostella was 100%.
